Measured values from PubChem BioAssay (NCI).
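Where inhibition never reached the appropriate level, the endpoint shown equals the highest concentration tested. Otherwise, values were interpolated linearly from a five-concentration, 48-hour dose response in 96-well plates. TGI denotes the concentration required for complete inhibition of growth.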

Legend:
Experiment in all cases: NCI anticancer screen, dose series, 48 h
[1] = tested on: PC-3 prostate
[2] = tested on: SW-620 colon
[3] = tested on: A549 NSCLC
[4] = tested on: HCC-2998 colon
[5] = tested on: SR leukemia
[6] = tested on: OVCAR-4 ovarian
[7] = tested on: MDA-N
[8] = tested on: 786-0 renal
[9] = tested on: UACC-257 melanoma
[10] = tested on: LOX IMVI melanoma
[11] = tested on: SF-539 CNS
[12] = tested on: UO-31 renal
[13] = tested on: NCI-H23 lung
[14] = tested on: HCT-116 colon
[15] = tested on: SNB-19 CNS
[16] = tested on: MALME-3M melanoma
[17] = tested on: OVCAR-3 ovarian
[18] = tested on: A498 renal
[19] = tested on: NCI-H522 lung
[20] = tested on: CAKI-1 renal
[21] = tested on: NCI/ADR-RES ovarian
[22] = tested on: MDA-MB-231 breast
[23] = tested on: SF-268 CNS
[24] = tested on: SK-MEL-5 melanoma
[25] = tested on: SF-295 CNS
[26] = tested on: HL-60(TB) leukemia
[27] = tested on: MOLT-4 leukemia
[28] = tested on: MCF7 breast
[29] = tested on: KM12 colon
[30] = tested on: ACHN renal
[31] = tested on: HCT-15 colon
[32] = tested on: SK-OV-3 ovarian
[33] = tested on: HT29 colon
[34] = tested on: M14 melanoma
[35] = tested on: U251 CNS
[36] = tested on: BT-549 breast
[37] = tested on: COLO 205 colon
[38] = tested on: IGROV1 ovarian
[39] = tested on: HOP-92 NSCLC
[40] = tested on: SN12C renal
[41] = tested on: K-562 leukemia
[42] = tested on: SNB-75 CNS
[43] = tested on: UACC-62 melanoma
[44] = tested on: OVCAR-8 ovarian
[45] = tested on: SK-MEL-2 melanoma
[46] = tested on: CCRF-CEM leukemia
[47] = tested on: NCI-H226 lung
[48] = tested on: HOP-62 NSCLC
[49] = tested on: RPMI-8226 leukemia
[50] = tested on: OVCAR-5 ovarian
[51] = tested on: TK-10 renal
[52] = tested on: NCI-H460 lung
[53] = tested on: SK-MEL-28 melanoma
[54] = tested on: T-47D breast
[55] = tested on: DU-145 prostate
[56] = tested on: HS 578T breast
[57] = tested on: RXF 393 renal
[58] = tested on: EKVX NSCLC
[59] = tested on: MDA-MB-435

## O=c1ssc2c1Nc1c(ssc1=O)S2
[1]
  TGI: 25.5 µM
[2]
  TGI: 31.1 µM
[3]
  TGI: 41 µM
[4]
  TGI: 29.4 µM
[5]
  TGI: 5.49 µM
[6]
  TGI: 28.2 µM
[7]
  TGI: 31.9 µM
[8]
  TGI: 14.5 µM
[9]
  TGI: 28.3 µM
[10]
  TGI: 24.3 µM
[11]
  TGI: 21.5 µM
[12]
  TGI: 24.4 µM
[13]
  TGI: 35.3 µM
[14]
  TGI: 31.2 µM
[15]
  TGI: 34.7 µM
[16]
  TGI: 22.4 µM
[17]
  TGI: 32.4 µM
[18]
  TGI: 24.7 µM
[19]
  TGI: 37.4 µM
[20]
  TGI: 33.3 µM
[21]
  TGI: 37.4 µM
[22]
  TGI: 57.3 µM
[23]
  TGI: 33.5 µM
[24]
  TGI: 29.4 µM
[25]
  TGI: 74.7 µM
[26]
  TGI: 15.5 µM
[27]
  TGI: 28.4 µM
[28]
  TGI: 39.2 µM
[29]
  TGI: 28.6 µM
[30]
  TGI: 30.2 µM
[31]
  TGI: 41.3 µM
[32]
  TGI: 36.3 µM
[33]
  TGI: 73.8 µM
[34]
  TGI: 27.2 µM
[35]
  TGI: 33.3 µM
[36]
  TGI: 52.5 µM
[37]
  TGI: 36.4 µM
[38]
  TGI: 26.4 µM
[39]
  TGI: 28.7 µM
[40]
  TGI: 28.1 µM
[41]
  TGI: 25.2 µM
[42]
  TGI: 30.2 µM
[43]
  TGI: 27.3 µM
[44]
  TGI: 28.6 µM
[45]
  TGI: 32.1 µM
[46]
  TGI: 6.8 µM
[47]
  TGI: 46.5 µM
[48]
  TGI: 36.4 µM
[49]
  TGI: 21.1 µM
[50]
  TGI: 32.4 µM
[51]
  TGI: 29.5 µM
[52]
  TGI: 36.4 µM
[53]
  TGI: 34.2 µM
[54]
  TGI: 26.2 µM
[55]
  TGI: 26.2 µM
[56]
  TGI: > 100 µM
[57]
  TGI: 17.4 µM
[58]
  TGI: 30 µM
[59]
  TGI: 33.5 µM

## O=C(O)CCc1ccc(-c2ccccc2)[nH]1
[1]
  TGI: > 100 µM
[2]
  TGI: > 100 µM
[3]
  TGI: > 100 µM
[4]
  TGI: > 100 µM
[5]
  TGI: > 100 µM
[6]
  TGI: > 100 µM
[7]
  TGI: > 100 µM
[8]
  TGI: > 100 µM
[9]
  TGI: > 100 µM
[10]
  TGI: > 100 µM
[11]
  TGI: > 100 µM
[12]
  TGI: > 100 µM
[13]
  TGI: > 100 µM
[14]
  TGI: > 100 µM
[15]
  TGI: > 100 µM
[16]
  TGI: > 100 µM
[17]
  TGI: > 100 µM
[18]
  TGI: > 100 µM
[19]
  TGI: > 100 µM
[20]
  TGI: > 100 µM
[21]
  TGI: > 100 µM
[22]
  TGI: > 100 µM
[23]
  TGI: > 100 µM
[24]
  TGI: > 100 µM
[25]
  TGI: > 100 µM
[26]
  TGI: > 100 µM
[27]
  TGI: > 100 µM
[28]
  TGI: > 100 µM
[29]
  TGI: > 100 µM
[30]
  TGI: > 100 µM
[31]
  TGI: > 100 µM
[32]
  TGI: > 100 µM
[33]
  TGI: > 100 µM
[34]
  TGI: > 100 µM
[35]
  TGI: > 100 µM
[36]
  TGI: > 100 µM
[37]
  TGI: > 100 µM
[38]
  TGI: > 100 µM
[39]
  TGI: > 100 µM
[40]
  TGI: > 100 µM
[41]
  TGI: > 100 µM
[42]
  TGI: > 100 µM
[43]
  TGI: > 100 µM
[44]
  TGI: > 100 µM
[45]
  TGI: > 100 µM
[46]
  TGI: > 100 µM
[47]
  TGI: > 100 µM
[48]
  TGI: > 100 µM
[49]
  TGI: > 100 µM
[50]
  TGI: > 100 µM
[51]
  TGI: > 100 µM
[52]
  TGI: > 100 µM
[53]
  TGI: > 100 µM
[54]
  TGI: > 100 µM
[55]
  TGI: > 100 µM
[56]
  TGI: > 100 µM
[57]
  TGI: > 100 µM
[58]
  TGI: > 100 µM
[59]
  TGI: > 100 µM

## CC(C)Oc1c(N(Cc2ccccc2)c2ccccc2C2SCCCS2)c(=O)c1=O
[1]
  TGI: 35.7 µM
[2]
  TGI: 8.2 µM
[3]
  TGI: > 100 µM
[4]
  TGI: 18.5 µM
[5]
  TGI: > 100 µM
[6]
  TGI: > 100 µM
[7]
  TGI: > 30.7 µM
[8]
  TGI: > 100 µM
[9]
  TGI: > 100 µM
[10]
  TGI: > 100 µM
[11]
  TGI: 8 µM
[12]
  TGI: > 100 µM
[13]
  TGI: > 47.5 µM
[14]
  TGI: 59.3 µM
[15]
  TGI: > 100 µM
[16]
  TGI: > 100 µM
[17]
  TGI: 7.07 µM
[18]
  TGI: > 85.1 µM
[19]
  TGI: 4.87 µM
[20]
  TGI: > 100 µM
[21]
  TGI: 4.7 µM
[22]
  TGI: > 56 µM
[23]
  TGI: > 100 µM
[24]
  TGI: > 100 µM
[25]
  TGI: 5.67 µM
[26]
  TGI: > 100 µM
[27]
  TGI: > 100 µM
[28]
  TGI: > 100 µM
[29]
  TGI: 35.9 µM
[30]
  TGI: > 100 µM
[31]
  TGI: > 56.5 µM
[32]
  TGI: > 73.4 µM
[33]
  TGI: 6.78 µM
[34]
  TGI: 19.3 µM
[35]
  TGI: > 100 µM
[36]
  TGI: > 100 µM
[37]
  TGI: 21.5 µM
[38]
  TGI: > 32.8 µM
[39]
  TGI: > 83.3 µM
[40]
  TGI: > 100 µM
[41]
  TGI: > 100 µM
[42]
  TGI: 7.22 µM
[43]
  TGI: > 100 µM
[44]
  TGI: > 60.7 µM
[45]
  TGI: 20.1 µM
[46]
  TGI: > 100 µM
[47]
  TGI: > 28.2 µM
[48]
  TGI: > 100 µM
[49]
  TGI: > 100 µM
[50]
  TGI: > 100 µM
[51]
  TGI: > 100 µM
[52]
  TGI: > 60.8 µM
[53]
  TGI: > 100 µM
[54]
  TGI: > 100 µM
[55]
  TGI: > 100 µM
[56]
  TGI: 32.6 µM
[57]
  TGI: > 100 µM
[58]
  TGI: > 100 µM
[59]
  TGI: 10.3 µM
